Source: patent publication US9193989B2, “PRPK-TPRKB modulators and uses thereof” (TAIHO PHARMACEUTICAL CO., LTD., priority 2010, dated 2015)

Experiments:
[1] = molecular target: T1, PRPK/TPRKB (Homo sapiens, UniProt Q96S44+Q9Y3C4); assay: Competition for PRPK/TPRKB binding to the pomalidomide-based affinity reagent (affigel pulldown); conditions: FIG. 4; excess free competitor
T1 construct: host or cells: HEK-293FT
Procedure: Cell lysates were prepared from 2×10^8 Jeko-1, Jurkat, or HS-Sultan cells or 5×10^7 HeLa S3 cells per pulldown sample by lysis in 2 mL Buffer B (50 mM HEPES pH 7.5, 5% glycerol, 1.5 mM MgCl2, 150 mM NaCl, 1 mM Na3VO4, 25 mM NaF, 0.4% Nonidet P-40, 1 mM DTT, and 1 Complete Mini EDTA-free protease inhibitor tablet per 10-25 mL Buffer B). Lysates were incubated on ice for 30 mM, followed by 2× freeze-thaw using liquid N2 and 37° C. water bath in polypropylene tubes. Samples were centrifuged at 1800 rpm for 5 mM at 4° C. Supernatants were ultracentrifuged at 55,000 rpm for 1 hr at 4° C. Supernatants were collected and pre-cleared with 10 μL control affigel reagent (affigel-ethanolamine or affigel-PEG linker) by incubation on a rotator for 30 mM at 4° C. Pre-cleared lysates were transferred to Mobicol 1 mL columns with 90 μm pore size frit on ice and centrifuged at 0.1 rcf for 10 sec to separate affigel beads from lysates. Incubations with pre-cleared lysates and excess pomalidomide were performed at a 20-fold excess competitor concentration (500 μM final concentration) on a rotator for 30 mM at 4° C. Subsequently, 10 μL control or pomalidomide-based affigel reagents were added to each sample and pulldowns were performed for 1 hr at 4° C. Lysates and affigel reagents were transferred to Mobicol 1 mL columns with 90 μm pore size frit and affigel beads were washed 3× with 800 μL Buffer B and 2× with 800 μL Buffer A (Buffer B not including 0.4% Nonidet P-40). Columns were centrifuged for 30 sec at 0.1 rcf to remove any remaining wash buffer and then closed with lower plug. Columns were placed in 1.5 mL Low-binding Eppendorf tubes and heated at 50° C. for 30 mM in 40 uL 2×SDS sample buffer with 10 mM DTT to elute bound proteins from affigel reagents. Columns were then opened and eluents were collected in the low-binding Eppendorf tubes by 15 sec centrifugation at 1600 rpm. Samples were applied and resolved on 4-12% SDS-PAGE gels followed by silver staining (SilverQuest Kit, Invitrogen, Carlsbad, Calif.). Bands which were competed by excess actimid competitor but not by DMSO were excised and identified by LC/MS/MS analysis at the Beth Israel Deaconess Medical Center Mass Spectrometry Core Facility (Boston, Mass.).
C-term Myc-DDK tagged PRPK and C-term Myc-DDK tagged TPRKB proteins were transiently overexpressed from cDNAs (obtained from Origene, Rockville, Md.) in HEK-293FT cells using FuGENE-6 transfection reagent according to the manufacturer's protocol (Roche, Indianapolis, Ind.). One day prior to transfection, 2.5×10^6 HEK-293FT cells were plated per p100 dish. Cells were lysed 48 hr post-transfection in 1-2 mL Buffer B per p100 dish per sample. […] The amount of PRPK and TPRKB captured by each affinity reagent was determined by silver stain and anti-DDK (anti-DDK monoclonal antibody, Origene) Western blot. Competition experiments were also performed using a variety of compounds and derivatives (pomalidomide, lenalidomide, thalidomide, CMPD 31, CMPD 30, CMPD 29).

[2] = system: IL-2 production by Jurkat and PBMCs; assay: IL-2 production assay, inhibition with CMPD 31; type: cell-based, human; conditions: FIG. 8; CMPD 31 at final concentration of 10 μM
Excerpt: This protocol describes the technique to detect the amount of IL-2 produced by Jurkat and PBMCs in 96-well format. This assay was used to calculate IL-2 production EC50 values of lenalidomide, pomalidomide, all derivatives and inhibition with CMPD 31.
Logarithmically growing Jurkat cells from ATCC (clone E6-1) or frozen and thawed human PBMCs from Astarte (Peripheral Blood Mononuclear Cells, normal Donor 41) were resuspended at 1×10^6 cells/mL in RPMI-1640 medium containing 10% FBS and 1% antibiotic/antimycotic solution. Cells were plated into each well of a 96-well anti-CD3 plate (Becton Dickinson catalogue number #354725) at 1×10^5 cells/100 μl per well. […]
Compound daughter plates were resuspended in 200 μL of RPMI-1640 medium as a 10× stock and then 20 μL of the 10× stock was added to each anti-CD3 antibody assay plate well with a final volume of 200 μl by the addition of 80 μl of complete media. […] The amount of IL-2 produced was determined by an ELISA assay and was performed in one of two ways as per manufacturer instructions; by a standard ELISA (Enzyme-Linked Immunosorbent Assay) protocol method (Becton Dickinson) or an AlphaLISA protocol (Perkin Elmer). […]

[3] = system: B cell growth; assay: Growth inhibition assay, inhibition with CMPD 31; type: cell-based; conditions: FIG. 8; CMPD 31 at final concentration of 10 μM
Procedure: This protocol describes the technique to perform growth inhibition assays in 96-well format. This assay was used to calculate growth inhibition IC50 values of lenalidomide, pomalidomide, all derivatives and inhibition with CMPD31.
Cell lines Jurkat, NCI-H929, and JeKo-1 were obtained from ATCC and were maintained by vendor-specified media requirements. Cells were plated in 96-well plates at 3,750 cells per well (Jeko-1, HS-Sultan) or 5,000 cell per well (NCI-H929) in 90 μL of assay growth medium (RPMI-1640, 10% FBS, 1% pen-strep). Cells in plates were allowed to incubate at room temperature for one hour and then transferred to an incubator set at 37° C. and 5% CO2 humidified air overnight.
Compounds were serially diluted 3-fold in 100% DMSO into duplicate 10-point dose curves using a Biomek FX liquid handler in columns 2 through 11 of a 96-well U-bottom plate. Starting concentrations of compounds was 10 mM. Daughter plates containing 2 μL of the compound dose curves were stamped and stored at −80 C. […]
Compound and control daughter plates were diluted 100-fold in 200 μl of assay growth medium and then finally diluted 10-fold more into the 96-well cell plates; a final dilution of 1000-fold in 0.1% DMSO for all wells. […] Plates were incubated for 2 hours at 37° C. in 5% CO2 and then plates were read on a Perkin Elmer Victor^3 V plate reader with excitation at 560 nm and emission at 590 nm. […]

[4] = system: natural killer cells in PBMCs; assay: Natural killer cell assay (DELFIA NK lytic activity); type: cell-based, human; conditions: FIG. 9; anti-CD3 stimulated PBMCs, 72 hours
Procedure: On the day of initial treatment, cryopreserved peripheral blood mononuclear cells from a healthy donor (PBMCs; Astarte Biologics) were thawed in RPMI-1640 containing 10% fetal bovine serum, 1% penicillin-streptomycin and 25 mM HEPES buffer (complete medium) at 37° C. PBMCs were centrifuged two times at 1000 rpm to remove residual DMSO and debris and counted on a haemocytometer. Cells were used at a final cell density of 1×10^6 cells per mL in complete medium. […]
Following the 72 hour treatment, NK cells were assayed for lytic activity using the DELFIA cell cytoxicity assay from Perkin-Elmer according to manufacturer's instructions. […] K562 cells were resuspended in DMEM containing 10% fetal bovine serum and 1% penicillin-streptomycin, counted on a hemacytometer and diluted to 1×10^6 cells per mL. […] Europium solution (200 μL) was added to the supernatants and the plate was placed on a Wallac Victor microplate reader. Following a 15 minute orbital shake at high speed, the plate was read using time-resolved fluorescence (Excitation at 340 nm, Emission at 615 nm; delay 400 μsec; counting window 400 μsec, cycle 1000 μsec). […]

T1 sequence (Q96S44 whole entry, other chains not shown): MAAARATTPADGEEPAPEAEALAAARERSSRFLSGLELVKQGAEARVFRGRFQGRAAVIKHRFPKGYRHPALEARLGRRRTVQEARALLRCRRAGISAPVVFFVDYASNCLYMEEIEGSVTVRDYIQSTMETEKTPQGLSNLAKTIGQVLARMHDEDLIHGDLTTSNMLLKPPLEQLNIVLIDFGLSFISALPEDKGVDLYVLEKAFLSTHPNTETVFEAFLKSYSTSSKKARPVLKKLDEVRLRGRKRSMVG

Structure (SMILES) | compete for PRPK/TPRKB target binding to the pomalidomide-based affinity reagent [1] | suppression of the activity of lenalidomide and pomalidomide in induction of IL-2 production [2] | suppression of the activity of lenalidomide and pomalidomide in inhibition of B cell growth [3] | natural killer cell activation in PBMCs [4]
CN1C(=O)CCC(N2C(=O)c3cccc(N)c3C2=O)C1=O (stereo not shown) [CMPD 29, 4-Amino-2-(1-methyl-2,6-dioxopiperidin-3-yl)isoindoline-1,3-dione] | compete | – | – | –
Nc1cccc2c1C(=O)N([C@H]1CCC(=O)NC1)C2=O [CMPD 30, (S)-4-Amino-2-(6-oxopiperidin-3-yl)isoindoline-1,3-dione] | does not | – | – | –
Nc1ccc2c(c1)C(=O)N(C1CCC(=O)NC1=O)C2=O (stereo not shown) [CMPD 31] | compete | suppresses | suppresses | –
Nc1cccc2c1CN(C1CCC(=O)NC1=O)C2=O (stereo not shown) [lenalidomide] | compete | – | – | activation
Nc1cccc2c1C(=O)N(C1CCC(=O)NC1=O)C2=O (stereo not shown) [pomalidomide] | compete | – | – | activation
O=C1CCC(N2C(=O)c3ccccc3C2=O)C(=O)N1 (stereo not shown) [thalidomide] | compete | – | – | –
